Laboratory results as given in patent US7943644B2, “Stabilization of iodine-containing biocides by means of special azole compounds” (LANXESS Deutschland GmbH, priority 2006, dated 2011).

Assay: Storage stability of IPBC in Dowanol TPM solution with cobalt dryer and azole stabilizer (HPLC)
Format: physicochemical
Settings: 10% by weight IPBC, 5% Octasoligen-Cobalt 8, 5% stabilizer; for Amount of IPBC (start): HPLC at the beginning; for Amount of IPBC (2 weeks, 40° C.): stored at 40° C., HPLC after two weeks
Protocol: A solution was prepared in Dowanol TPM (tripropylene glycol methyl ether), containing 10% by weight of iodopropargyl butylcarbamate, 5% by weight of Octasoligen-Cobalt 8 (Borchers, Langenfeld, Germany) and 5% by weight of the azole compounds of the formula (I) specified as a stabilizer in Table 1. The mixture was stored at 40° C. The amount of IPBC was determined by means of HPLC at the beginning and after two weeks.

Structure (SMILES)	Amount of IPBC (start)	Amount of IPBC (2 weeks, 40° C.)
Nc1nnc[nH]1 [Example 3]	9.7%	9.5%
Oc1nnc(S)[nH]1 [Example 2]	9.9%	8.9%
Sc1nnc[nH]1 [Example 1]	10.2%	9.0%
Nc1nnc(N)[nH]1 [Example 4]	9.7%	9.7%
